Reference: BindingDB's records for patent US10023539 (Bayer Pharma Aktiengesellschaft, 2018)
pIC50: −log10 of the molar value.

Biological target: N-lysine methyltransferase SMYD2 (Homo sapiens, UniProt Q9NRG4)
Experiment: Scintillation Proximity Assay (SPA) for Detection of SMYD2 Enzymatic Inhibition
Conditions: pH 9
Method: To this end, 100-fold concentrated compound solutions (in DMSO) were previously prepared by serial dilution (1:3.4) of 2 mM stocks in a clear low volume 384-well source microtiter plate (Greiner Bio-One), from which 50 nl of compound solutions were transferred into a white low volume test microtiter plate from the same supplier. […] The samples were then incubated for 15 min at 22° C. to allow pre-equilibration of the putative enzyme-inhibitor complexes before the start of the methylation reaction, which was initiated by the addition of 2.5 μl 2-fold concentrated solution (in assay buffer) of titrated S-Adenosyl-L-Methionine (3H-SAM, Perkin Elmer, final concentration: 60 nM) and p53 Peptide substrate (final concentration: 1.0 μM). The resulting mixture (5 μl final volume) was shortly centrifuged (2 min., 1500 rpm) and incubated at 22° C. during 30 min.

N-lysine methyltransferase SMYD2, sequence (Q9NRG4 whole entry): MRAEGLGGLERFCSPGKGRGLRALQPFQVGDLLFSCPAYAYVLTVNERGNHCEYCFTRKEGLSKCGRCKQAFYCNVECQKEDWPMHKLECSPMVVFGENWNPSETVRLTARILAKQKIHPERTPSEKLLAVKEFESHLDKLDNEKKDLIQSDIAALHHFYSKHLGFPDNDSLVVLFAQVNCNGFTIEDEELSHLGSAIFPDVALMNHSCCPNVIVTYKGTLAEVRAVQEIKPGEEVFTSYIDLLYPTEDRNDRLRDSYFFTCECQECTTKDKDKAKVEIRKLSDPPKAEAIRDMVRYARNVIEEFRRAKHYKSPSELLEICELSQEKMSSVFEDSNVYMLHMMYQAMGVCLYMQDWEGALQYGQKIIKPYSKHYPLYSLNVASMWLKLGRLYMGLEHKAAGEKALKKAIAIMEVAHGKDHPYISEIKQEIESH

## CCN(C(=O)[C@@H](C)NC)C1CN(/C(=N\C#N)Nc2cccc(OC(F)F)c2)N=C1c1ccc(Cl)c(C)c1 (stereo partly specified) [US10023539, Example 37]
  pIC50: 6.64
